Data as given in PubChem BioAssay (NCI).
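Five concentrations, 48 hours, 96-well plates. GI50 = concentration required for 50% inhibition of growth. TGI is the concentration that stops growth completely.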

Columns and labels:
Test in all cases: NCI tumour cell line growth inhibition, 48 h
[1] = tested on: DU-145 prostate
[2] = tested on: MOLT-4 leukemia
[3] = tested on: A498 renal
[4] = tested on: MDA-N
[5] = tested on: IGROV1 ovarian
[6] = tested on: NCI/ADR-RES ovarian
[7] = tested on: TK-10 renal
[8] = tested on: SN12C renal
[9] = tested on: EKVX NSCLC
[10] = tested on: SF-539 CNS
[11] = tested on: SK-MEL-28 melanoma
[12] = tested on: OVCAR-3 ovarian
[13] = tested on: A549 NSCLC
[14] = tested on: HOP-92 NSCLC
[15] = tested on: SK-OV-3 ovarian
[16] = tested on: T-47D breast
[17] = tested on: SNB-75 CNS
[18] = tested on: UACC-257 melanoma
[19] = tested on: HT29 colon
[20] = tested on: SW-620 colon
[21] = tested on: CAKI-1 renal
[22] = tested on: COLO 205 colon
[23] = tested on: UACC-62 melanoma
[24] = tested on: BT-549 breast
[25] = tested on: ACHN renal
[26] = tested on: SK-MEL-2 melanoma
[27] = tested on: PC-3 prostate
[28] = tested on: NCI-H522 lung
[29] = tested on: HL-60(TB) leukemia
[30] = tested on: NCI-H460 lung
[31] = tested on: HS 578T breast
[32] = tested on: HOP-62 NSCLC
[33] = tested on: SF-268 CNS
[34] = tested on: HCT-15 colon
[35] = tested on: 786-0 renal
[36] = tested on: OVCAR-8 ovarian
[37] = tested on: KM12 colon
[38] = tested on: OVCAR-4 ovarian
[39] = tested on: RXF 393 renal
[40] = tested on: SK-MEL-5 melanoma
[41] = tested on: M14 melanoma
[42] = tested on: MALME-3M melanoma
[43] = tested on: NCI-H23 lung
[44] = tested on: HCT-116 colon
[45] = tested on: UO-31 renal
[46] = tested on: MCF7 breast
[47] = tested on: SF-295 CNS
[48] = tested on: LOX IMVI melanoma
[49] = tested on: NCI-H226 lung
[50] = tested on: U251 CNS
[51] = tested on: K-562 leukemia
[52] = tested on: MDA-MB-231 breast
[53] = tested on: MDA-MB-435
[54] = tested on: CCRF-CEM leukemia
[55] = tested on: OVCAR-5 ovarian
[56] = tested on: SR leukemia
[57] = tested on: SNB-19 CNS
[58] = tested on: RPMI-8226 leukemia
[59] = tested on: HCC-2998 colon

Work on NC(=O)C(c1ccccc1)N1OC2C(=O)N(Cc3ccccc3)C(=O)C2C1c1cccc(Oc2ccc(Cl)cc2)c1 (stereo unspecified) yielded a TGI [1] greater than 100 µM, a TGI [2] of 98.9 µM and a TGI [3] greater than 100 µM. It also gave a TGI [4] of 49.7 µM, a TGI [5] greater than 100 µM and a TGI [6] greater than 100 µM. The TGI [7] was 95.6 µM, the TGI [8] was 30.7 µM and the TGI [9] was 67.2 µM. For the same molecule, the TGI [10] was 47.2 µM, the TGI [11] was greater than 100 µM and the TGI [12] was 43.1 µM. For the same molecule, the TGI [13] was greater than 100 µM, the TGI [14] was greater than 100 µM and the TGI [15] was greater than 100 µM. For the same molecule, the TGI [16] was greater than 100 µM, the TGI [17] was greater than 100 µM and the TGI [18] was greater than 100 µM. The TGI [19] was 35.6 µM, the TGI [20] was greater than 100 µM and the TGI [21] was 31.9 µM. It also gave a TGI [22] of 32 µM, a TGI [23] of 32.3 µM and a TGI [24] greater than 100 µM. The TGI [25] was 39.9 µM, the TGI [26] was 48.8 µM and the TGI [27] was greater than 100 µM. It also gave a TGI [28] greater than 100 µM, a TGI [29] of 51.2 µM and a TGI [30] of 90.1 µM. For the same molecule, the TGI [31] was greater than 100 µM, the TGI [32] was greater than 100 µM and the TGI [33] was greater than 100 µM. The TGI [34] was greater than 100 µM, the TGI [35] was 50 µM and the TGI [36] was greater than 100 µM. The TGI [37] was greater than 100 µM, the TGI [38] was greater than 100 µM and the TGI [39] was 53 µM. The TGI [40] was 30.4 µM, the TGI [41] was 69.5 µM and the TGI [42] was greater than 100 µM. It also gave a TGI [43] greater than 100 µM, a TGI [44] of 44.5 µM and a TGI [45] of 7.88 µM. It also gave a TGI [46] of 69.4 µM, a TGI [47] greater than 100 µM and a TGI [48] of 34.2 µM. It also gave a TGI [49] greater than 100 µM, a TGI [50] of 85.6 µM and a TGI [51] of 99.5 µM. The TGI [52] was greater than 100 µM, the TGI [53] was greater than 100 µM and the TGI [54] was greater than 100 µM. For the same molecule, the TGI [55] was greater than 100 µM, the TGI [56] was 54.1 µM and the TGI [57] was greater than 100 µM.

In the case of C#CCn1c(=O)ccn(/C(=C\C(=O)OCC)C(=O)OCC)c1=O, the TGI [1] is reported as 31.1 µM, the TGI [2] is reported as greater than 27.7 µM and the TGI [3] is reported as 36 µM. For the same molecule, the TGI [4] was 35.1 µM, the TGI [5] was 29.8 µM and the TGI [6] was 33.3 µM. The TGI [7] was 3.45 µM, the TGI [8] was greater than 58 µM and the TGI [9] was 27.9 µM. For the same molecule, the TGI [10] was 4.64 µM, the TGI [11] was 25.7 µM and the TGI [12] was 16.3 µM. The TGI [13] was 43.8 µM, the TGI [14] was 4.5 µM and the TGI [15] was greater than 59.9 µM. For the same molecule, the TGI [16] was 12.7 µM, the TGI [17] was 39.9 µM and the TGI [18] was 29.5 µM. It also gave a TGI [58] greater than 23.9 µM, a TGI [19] of 4.4 µM and a TGI [20] of 5.37 µM. It also gave a TGI [21] of 2.4 µM, a GI50 [22] of 1.53 µM and a TGI [22] of 3.17 µM. It also gave a TGI [23] of 28.3 µM, a TGI [24] of 25.4 µM and a TGI [25] of 3.08 µM. For the same molecule, the TGI [26] was 32.5 µM, the TGI [27] was 29.4 µM and the TGI [29] was greater than 100 µM. The TGI [30] was 7.76 µM, the TGI [31] was 63.5 µM and the TGI [32] was greater than 54.4 µM. It also gave a TGI [33] of 42.4 µM, a TGI [34] of 6.63 µM and a TGI [35] of 6.05 µM. It also gave a TGI [36] of 5.42 µM, a TGI [37] of 48.8 µM and a TGI [38] of 7.3 µM. For the same molecule, the TGI [39] was 4.84 µM, the TGI [40] was 46.1 µM and the TGI [41] was 10.3 µM. It also gave a TGI [42] of 4.99 µM, a TGI [43] of 31.8 µM and a TGI [44] of 16.5 µM. It also gave a TGI [45] of 26.4 µM, a TGI [46] of 9.78 µM and a TGI [47] of 43.3 µM. The TGI [48] was greater than 50.5 µM, the TGI [59] was 35.9 µM and the TGI [49] was 40.4 µM. The TGI [50] was 39.8 µM, the TGI [51] was greater than 100 µM and the TGI [52] was 41.9 µM. It also gave a TGI [53] of 22.9 µM, a TGI [54] greater than 20.9 µM and a TGI [55] of 30.9 µM. The TGI [56] was greater than 43.5 µM and the TGI [57] was 36.4 µM.
